Experiments:
[1] = Biodistribution of In-111-DTPA and large liposomes; conditions: in vivo
Text: FIGS. 10A-10C depict the biodistribution of ^111In-DTPA only (FIG. 10A) zwitterionic liposomes (FIG. 10B), ^111In-DTPA cationic liposomes (FIG. 10C).
Over time the percentage per gram of tissue tested of the original amount of In-111 found in the spleen and liver increases while that in blood and other tissues such as heart, lungs, stomach, intestines, kidneys, bone, and muscle remain constant or decrease. […] Preinjection with empty large liposomes to saturate the reticuloendothelial organs will reduce non-specific radionuclide uptake by the spleen and liver.

myeloid leukemia = conditions: first injection of an alpha-particle emitter to humans; cited from earlier work

Row | Molecule | tissue localization of In-111 [1] | trial outcome (myeloid leukemia)
1 | O=C([O-])CN(CCN(CC(=O)[O-])CC(=O)[O-])CCN(CC(=O)[O-])CC(=O)[O-].[111In+3].[H+].[H+] [DTPA-chelated In-111] | localize to the kidneys more than to other tissues | 
2 | HuM195: 213Bi conjugated to the anti-CD33 antibody HuM195 |  | feasibility and anti-cancer activity with minimal toxicity
